Paper PMC9447362
Read-outs that look alike come from different tables or passages of the source.

System: P4 G4
Test: In vitro translation (IVT) assays
Format: biochemical, SARS-CoV-2

For NCCOc1cc(C(=O)Nc2cc(OCCN3CCCC3)c3ccccc3n2)nc(C(=O)Nc2cc(OCCN3CCCC3)c3ccccc3n2)c1 [PDP], the “IVT of P4-Mut” value (P4-Mut (G/A mutations)) was “not for P4-Mut”.

In the case of C[n+]1ccc(-c2c3nc(c(-c4cc[n+](C)cc4)c4ccc([nH]4)c(-c4cc[n+](C)cc4)c4nc(c(-c5cc[n+](C)cc5)c5ccc2[nH]5)C=C4)C=C3)cc1 [TMPyP4, 5,10,15,20-tetrakis-(N-methyl-4-pyridyl)porphine], the “IVT of P4-Mut” value is reported as “not for P4-Mut”.
